Experiment [1] has as its system Mouse ES cells. The experiment in a line: Mitotic arrest of mouse ES cells. The class given is cell-based. The note with it: nocodazole 400 nM, about 12 hours. As to the method: FIG. 9: Induction of mitotic spindle matrix assembly by RanGTP and AurA-beads in mouse ES cells. Mouse ES cells were arrested in mitosis using nocodazole. 70-90% mitotic arrest can be achieved after about 12 hours of nocodazole (400 nM) treatment. The ES cells were washed in PBS and the cell pellet was snap frozen in liquid nitrogen. To make the cell lysate, an energy mix, which contains 0.5 mg/ml delta 90 cyclin B, 10 mM ATP, 100 mM creatine phosphate, 0.5 mg/ml creatine kinase, that equals to 5% of the volume of the ES cell pellet was used to resuspend the ES cell pellet. A ˜2-second sonication was used to disrupt the cell followed by centrifugation to make clarified and concentrated ES cell lysates. RanGTP and AurA-beads were added to the lysate to induce the assembly of mitotic spindle matrix. Shown are matrices that were double labeled with tubulin and lamin B, Sox2, or nanog. AurA-beads (2.8 μm) embedded in the matrices serve as reference for the scale.

Experiment [2] deals with LB3-matrix. The experiment in a line: LB3-matrix assembly in egg extracts (AurA-beads plus RanGTP or sperm chromatin). The class given is biochemical, Xenopus. As to the method:
Two methods were used to assay for LB3-matrix assembled in egg extracts. In the first method, spindle assembly was induced with either sperm or AurA-beads plus RanGTP. After incubation, 10 μl of egg extract was diluted into 1 ml XB buffer containing nocodazole (10 μM final concentration) and incubated at room temperature for 10 to 15 minutes to depolymerize MTs. In the second method, egg extracts were incubated with either sperm or AurA-beads plus RanGTP in the presence of 10 μM nocodazole at room temperature for the same time as for spindle assembly reactions. After incubated the egg extracts were diluted into 1 ml BRB80 buffer containing 30% glycerol. LB3-matrix assembled in both methods was spun onto coverslips through 3 ml BRB80 buffer containing 40% glycerol in the same manner as MT spin-down. The LB3-matrix were fixed with methanol (−20° C.) and stained with either polyclonal or monoclonal antibodies to LB3.
To detect the membrane in the lamin B matrix, spindles and LB3-matrices were assembled and spun onto coverslips as described above. The coverslips were incubated in BRB80 containing 20% sucrose and 1 μM Vybrant CM-Dil (Molecular Probes, V22888) for 5 minutes at room temperature and then washed briefly in BRB80 containing 20% sucrose. […]

Experiment [3] deals with mitotic spindle. Nature of the experiment: Spindle assembly in Xenopus egg extract. Format: biochemical. As to conditions: sperm or RanGTP plus AurA-beads; LB3T, LB3T-nls 10 μM; ΔNLB3, wild-type LB3 2 μM. As to the method: CSF-arrested Xenopus egg extracts, Xenopus sperm, and AurA-beads were prepared as described. […] Spindle assembly reactions were incubated at room temperature for 60 to 90 minutes with sperm or for 10 to 30 minutes with AurA-beads and RanGTP. To immunodeplete LB3, monoclonal antibody or polyclonal antibody to LB3 was coupled to protein A magnetic or agarose beads. IgG from non-immunized rabbits (Jackson Laboratory) was used for mock-depletion. To inhibit LB3 assembly with dominant negative LB3 mutants, LB3T and LB3T-nls were added at 10 μM final concentration, ΔNLB3 and wild-type LB3 were added at 2 μM final concentration to the egg extracts and incubated for 20 minutes before spindle assembly assays.

For the molecule `COC(=O)Nc1nc2ccc(C(=O)c3cccs3)cc2[nH]1` [nocodazole], in experiment [1], the mitotic arrest is 70-90%. Further, the “sperm around which LB3-matrix was still assembled” value in experiment [2] (MT assembly inhibited by nocodazole) is “more than half”.
Turning to triton X100, the “lamin B matrix integrity” value in experiment [2] (0.1% in XB containing nocodazole, 10 min at room temperature) is on record as “completely disrupted”.

B1: wild-type LB3: lamin B3, the major form of lamin B in Xenopus eggs, 6His fusion protein (protein)
chain: MATSTPSRAREHASAAQSPGSPTRISRMQEKEDLRHLNDRLAAYIERVRSLEADKSLLKIQLEEREEVSSREVTNLRQLYETELADARKLLDQTANERARLQVELGKVREEYRQLQARNSKKENDLSLAQNQLRDLESKLNTKEAELATALSGKRGLEEQLQEQRAQIAGLESSLRDTTKQLHDEMLWRVDLENKMQTIREQLDFQKNIHTQEVKEIKKRHDTRIVEIDSGRRVEFESKLAEALQELRRDHEQQILEYKEHLEKNFSAKLENAQLAAAKNSDYASATREEIMATKLRVDTLSSQLNHYQKQNSALEAKVRDLQDMLDRAHDMHRRQMTEKDREVTEIRQTLQGQLEEYEQLLDVKLALDMEINAYRKMLEGEEQRLKLSPSPSQRSTVSRASTSQTSRLLRGKKRKLDETGRSVTKRSYKVVQQASSTGPVSVEDIDPEGNYVRLLNNTEEDFSLHGWVVKRMHMSLPEIAFKLPCRFILKSSQRVTIWAAGAGAVHSPPTDLVWKSQKTWGTGDNIKITLLDSTGEECAERTLYRVIGEEGETDEDFVEEEELERQFRSQSHQSVDPSC
For B1, the spindle assembly entry in experiment [3] is “neither buffer control nor wild-type LB3 affected”.

Source of the values: patent publication US7510850B2, “Isolation of the mitotic spindle matrix and its methods of use” (Carnegie Institution of Washington, priority 2005, dated 2009).
